Conditions: dynamic light scattering

Cc1ccccc1 [toluene]
Liquid
Conditions	thermal diffusivity [m2/s]
302.9 K	8.63e-08
312.45 K	8.33e-08
323.07 K	8.03e-08
333.27 K	7.77e-08
343.52 K	7.52e-08
353.73 K	7.3e-08
363.73 K	7.09e-08
373.04 K	6.9e-08
382.94 K	6.71e-08
392.88 K	6.52e-08
402.93 K	6.33e-08
413.06 K	6.15e-08
422.73 K	5.98e-08
432.67 K	5.81e-08
442.68 K	5.64e-08
452.96 K	5.48e-08
462.99 K	5.33e-08
473.2 K	5.19e-08
482.98 K	5.06e-08
493.05 K	4.94e-08
503.17 K	4.84e-08
513.41 K	4.74e-08
523.38 K	4.66e-08

CCOC(C)(C)C [2-ethoxy-2-methylpropane]
Conditions	thermal diffusivity [m2/s]
293.13 K, Liquid	5.67e-08
303.09 K, Liquid	5.45e-08
313.21 K, Liquid	5.16e-08
323.18 K, Liquid	4.96e-08
333.18 K, Liquid	4.79e-08
338.25 K, Liquid	4.7e-08
343.17 K, Liquid	4.64e-08
348.15 K, Liquid	4.55e-08
353.08 K, Liquid	4.49e-08
358.19 K, Liquid	4.43e-08
363.1 K, Liquid	4.38e-08
368.12 K, Liquid	4.33e-08
373.11 K, Liquid	4.3e-08
378.18 K, Liquid	4.26e-08
383.14 K, Liquid	4.2e-08
388.07 K, Liquid	4.17e-08
393.06 K, Liquid	4.15e-08
398.17 K, Liquid	4.1e-08
403.22 K, Liquid	4.08e-08
408.16 K, Liquid	4.02e-08
413.1 K, Liquid	4e-08
418.18 K, Liquid	3.97e-08
423.09 K, Liquid	3.95e-08
428.08 K, Liquid	3.9e-08
433.07 K, Gas	3.03e-07
433.18 K, Liquid	3.85e-08
438.17 K, Liquid	3.82e-08
443.06 K, Liquid	3.77e-08
443.25 K, Gas	2.57e-07
448.18 K, Liquid	3.74e-08
453.13 K, Gas	2.14e-07
453.18 K, Liquid	3.68e-08
458.1 K, Liquid	3.61e-08
463.05 K, Gas	1.7e-07
463.19 K, Liquid	3.53e-08
466.12 K, Liquid	3.5e-08
468.16 K, Gas	1.5e-07
469.18 K, Liquid	3.45e-08
472.09 K, Liquid	3.39e-08
473.25 K, Gas	1.28e-07
475.06 K, Liquid	3.33e-08
478.15 K, Liquid	3.25e-08
478.2 K, Gas	1.08e-07
481.24 K, Liquid	3.16e-08
483.18 K, Gas	8.76e-08
484.23 K, Liquid	3.05e-08
487.17 K, Liquid	2.95e-08
488.25 K, Gas	6.52e-08
490.09 K, Liquid	2.77e-08
493.14 K, Liquid	2.63e-08
493.22 K, Gas	3.68e-08
496.24 K, Liquid	2.27e-08

Liquid
Conditions	thermal diffusivity [m2/s]
372.96 K, 4000 kPa	4.4e-08
373.15 K, 7000 kPa	4.47e-08
373.16 K, 10000 kPa	4.5e-08
383.18 K, 10000 kPa	4.45e-08
383.35 K, 7000 kPa	4.41e-08
383.37 K, 4000 kPa	4.34e-08
392.97 K, 7000 kPa	4.35e-08
393 K, 4000 kPa	4.27e-08
393.05 K, 10000 kPa	4.4e-08
402.94 K, 4000 kPa	4.2e-08
402.99 K, 7000 kPa	4.28e-08
403.09 K, 10000 kPa	4.35e-08
413.25 K, 10000 kPa	4.3e-08
413.34 K, 7000 kPa	4.21e-08
413.35 K, 4000 kPa	4.12e-08
421.78 K, 4000 kPa	4.07e-08
421.86 K, 7000 kPa	4.16e-08
422.25 K, 10000 kPa	4.24e-08
431.42 K, 4000 kPa	4e-08
431.52 K, 7000 kPa	4.1e-08
432.83 K, 10000 kPa	4.18e-08
442.12 K, 4000 kPa	3.92e-08
442.19 K, 7000 kPa	4.04e-08
442.53 K, 10000 kPa	4.13e-08
452.09 K, 4000 kPa	3.85e-08
452.26 K, 7000 kPa	3.98e-08
452.4 K, 10000 kPa	4.08e-08
462.41 K, 4000 kPa	3.75e-08
462.47 K, 7000 kPa	3.92e-08
462.95 K, 10000 kPa	4.03e-08
472.45 K, 4000 kPa	3.65e-08
472.63 K, 7000 kPa	3.87e-08
472.63 K, 10000 kPa	3.99e-08
478.13 K, 10000 kPa	3.97e-08
478.14 K, 7000 kPa	3.84e-08
478.2 K, 4000 kPa	3.6e-08
482.44 K, 4000 kPa	3.52e-08
483.15 K, 7000 kPa	3.82e-08
483.2 K, 10000 kPa	3.95e-08
488.15 K, 7000 kPa	3.79e-08
488.65 K, 4000 kPa	3.44e-08
488.83 K, 10000 kPa	3.93e-08
493.13 K, 4000 kPa	3.34e-08
493.16 K, 7000 kPa	3.77e-08
493.3 K, 10000 kPa	3.92e-08

CCC(C)(C)OC [2-methoxy-2-methylbutane]
Conditions	thermal diffusivity [m2/s]
291.5 K, Liquid	6.65e-08
302.19 K, Liquid	6.36e-08
312.11 K, Liquid	6.17e-08
323 K, Liquid	5.95e-08
332.51 K, Liquid	5.75e-08
342.71 K, Liquid	5.5e-08
352.32 K, Liquid	5.33e-08
363.24 K, Liquid	5.18e-08
373.18 K, Liquid	5e-08
382.92 K, Liquid	4.84e-08
388.1 K, Liquid	4.75e-08
392.6 K, Liquid	4.68e-08
398.45 K, Liquid	4.61e-08
402.91 K, Liquid	4.55e-08
418.23 K, Liquid	4.36e-08
423 K, Liquid	4.3e-08
428.55 K, Liquid	4.24e-08
432.78 K, Liquid	4.2e-08
438.24 K, Liquid	4.14e-08
442.67 K, Liquid	4.1e-08
448.19 K, Liquid	4.04e-08
453.53 K, Liquid	3.98e-08
458.62 K, Liquid	3.95e-08
463.3 K, Liquid	3.9e-08
468.1 K, Liquid	3.87e-08
472 K, Liquid	3.83e-08
477.88 K, Gas	2.54e-07
478.34 K, Liquid	3.81e-08
482.92 K, Liquid	3.78e-08
483.74 K, Gas	2.3e-07
487.65 K, Gas	2.13e-07
488.23 K, Liquid	3.75e-08
492.26 K, Liquid	3.71e-08
493.04 K, Gas	1.9e-07
498.77 K, Liquid	3.63e-08
499.05 K, Gas	1.63e-07
501.9 K, Liquid	3.6e-08
502.72 K, Gas	1.45e-07
504.05 K, Liquid	3.58e-08
506.94 K, Liquid	3.52e-08
508.18 K, Gas	1.21e-07
508.48 K, Liquid	3.51e-08
511.05 K, Liquid	3.42e-08
511.38 K, Gas	1.05e-07
514.02 K, Liquid	3.36e-08
517.41 K, Gas	7.83e-08
517.73 K, Liquid	3.2e-08
519.01 K, Liquid	3.15e-08
522.19 K, Liquid	2.98e-08
522.45 K, Gas	4.2e-08

Liquid
Conditions	thermal diffusivity [m2/s]
373.1 K, 7000 kPa	5.35e-08
373.11 K, 4000 kPa	5.2e-08
373.12 K, 10000 kPa	5.47e-08
382.8 K, 4000 kPa	5.08e-08
382.83 K, 7000 kPa	5.23e-08
382.94 K, 10000 kPa	5.36e-08
392.61 K, 4000 kPa	4.9e-08
392.63 K, 7000 kPa	5.09e-08
392.73 K, 10000 kPa	5.23e-08
402.72 K, 4000 kPa	4.77e-08
402.77 K, 7000 kPa	4.93e-08
402.81 K, 10000 kPa	5.07e-08
412.73 K, 4000 kPa	4.66e-08
412.76 K, 7000 kPa	4.81e-08
412.86 K, 10000 kPa	4.94e-08
422.87 K, 10000 kPa	4.82e-08
423 K, 4000 kPa	4.52e-08
423.06 K, 7000 kPa	4.69e-08
432.66 K, 4000 kPa	4.42e-08
432.76 K, 7000 kPa	4.59e-08
432.8 K, 10000 kPa	4.72e-08
442.61 K, 4000 kPa	4.31e-08
442.7 K, 7000 kPa	4.47e-08
442.73 K, 10000 kPa	4.6e-08
453.25 K, 10000 kPa	4.51e-08
453.47 K, 4000 kPa	4.2e-08
453.58 K, 7000 kPa	4.37e-08
463.14 K, 4000 kPa	4.14e-08
463.21 K, 7000 kPa	4.31e-08
463.25 K, 10000 kPa	4.44e-08
472.15 K, 4000 kPa	4.08e-08
472.25 K, 7000 kPa	4.26e-08
472.35 K, 10000 kPa	4.39e-08
478.13 K, 10000 kPa	4.36e-08
478.14 K, 7000 kPa	4.22e-08
478.39 K, 4000 kPa	4.06e-08
483.16 K, 7000 kPa	4.19e-08
483.16 K, 10000 kPa	4.32e-08
483.31 K, 4000 kPa	4.02e-08
488.17 K, 7000 kPa	4.16e-08
488.18 K, 10000 kPa	4.29e-08
488.54 K, 4000 kPa	3.98e-08
492.58 K, 4000 kPa	3.96e-08
493.13 K, 7000 kPa	4.13e-08
493.14 K, 10000 kPa	4.26e-08
498.16 K, 10000 kPa	4.22e-08
498.25 K, 7000 kPa	4.08e-08
499 K, 4000 kPa	3.9e-08
503.15 K, 10000 kPa	4.18e-08
503.16 K, 4000 kPa	3.85e-08
503.2 K, 7000 kPa	4.04e-08
508.09 K, 7000 kPa	3.99e-08
508.14 K, 10000 kPa	4.15e-08
508.25 K, 4000 kPa	3.8e-08
512.28 K, 4000 kPa	3.72e-08
512.29 K, 7000 kPa	3.94e-08
512.53 K, 10000 kPa	4.12e-08
517.79 K, 4000 kPa	3.63e-08
517.85 K, 7000 kPa	3.9e-08
518.05 K, 10000 kPa	4.08e-08
523.25 K, 4000 kPa	3.53e-08
523.25 K, 7000 kPa	3.84e-08
523.25 K, 10000 kPa	4.05e-08
